# Experimental data taken from patent US20230091225A1, “Bifunctional chimeric heterocyclic compounds for targeted degradation of androgen receptors and use thereof” (HINOVA PHARMACEUTICALS INC., priority 2019, published 2023).
# Target: T1, androgen receptor (AR) (Homo sapiens, UniProt P10275)
# T1 sequence (P10275 1-920): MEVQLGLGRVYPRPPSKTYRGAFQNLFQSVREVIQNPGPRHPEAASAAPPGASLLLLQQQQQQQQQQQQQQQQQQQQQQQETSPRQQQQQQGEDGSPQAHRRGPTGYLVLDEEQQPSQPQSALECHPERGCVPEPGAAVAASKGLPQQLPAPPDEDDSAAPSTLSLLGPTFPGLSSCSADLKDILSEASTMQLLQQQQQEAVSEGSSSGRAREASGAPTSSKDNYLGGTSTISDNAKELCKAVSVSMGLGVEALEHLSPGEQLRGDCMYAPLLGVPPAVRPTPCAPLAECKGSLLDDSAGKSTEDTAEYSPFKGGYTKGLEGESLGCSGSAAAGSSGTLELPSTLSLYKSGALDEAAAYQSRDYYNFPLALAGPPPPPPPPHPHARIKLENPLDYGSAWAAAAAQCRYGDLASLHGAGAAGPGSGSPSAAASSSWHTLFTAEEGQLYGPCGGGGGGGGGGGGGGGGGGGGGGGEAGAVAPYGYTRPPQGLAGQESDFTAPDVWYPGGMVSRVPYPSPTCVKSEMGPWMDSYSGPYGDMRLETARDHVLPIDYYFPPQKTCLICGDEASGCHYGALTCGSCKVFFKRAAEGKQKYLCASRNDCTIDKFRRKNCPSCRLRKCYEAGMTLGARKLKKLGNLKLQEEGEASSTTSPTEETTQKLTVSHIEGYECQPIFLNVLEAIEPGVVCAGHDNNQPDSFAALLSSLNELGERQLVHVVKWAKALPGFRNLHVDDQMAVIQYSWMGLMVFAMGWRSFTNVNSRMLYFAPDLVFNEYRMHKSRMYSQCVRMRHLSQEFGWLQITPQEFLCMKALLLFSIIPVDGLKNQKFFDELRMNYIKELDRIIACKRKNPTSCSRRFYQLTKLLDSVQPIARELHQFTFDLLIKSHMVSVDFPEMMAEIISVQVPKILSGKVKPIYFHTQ
# Assay: Degradation of androgen receptor (AR) protein in VCaP cells by Western blot
# Type: cell-based
# Settings: FIG. 1
# Procedure, shortened: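 AR and β-actin levels were read by Western blot with ECL detection, loading 30 μg lysate protein per well. Before lysis, VCaP cells seeded at 5×10^5/well and grown overnight were exposed to compound for 16 h, two wells per concentration, keeping DMSO at 0.1%.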
row,SMILES,degradation activity on AR at different concentrations
1,N#Cc1ccc(O[C@H]2CC[C@H](NC(=O)c3cnc(N4CCN(C[C@@H]5[C@H]6CN(c7cc8c(cc7F)C(=O)N(C7CCC(=O)NC7=O)C8=O)C[C@@H]56)CC4)cn3)CC2)cc1Cl (some centres unmarked) [Compound 99],concentration-dependent manner

# Same assay, conditions: percentage of degraded AR at 100 nM, VCaP cells, 16 h
row,SMILES,inhibition at 0.1 µM
1,"CC1(C)[C@H](Oc2ccc(C#N)c(Cl)c2)C(C)(C)[C@H]1N1Cc2nc(C#CC3CCN(C4CN(c5cc6c(cc5F)C(=O)N(C5CCC(=O)NC5=O)C6=O)C4)CC3)ccc2C1=O (some centres unmarked) [Compound 318, 2-Chloro-4-((1r,3r)-3-(2-((1-(1-(2-(2,6-dioxopiperidin-3-yl)-6-fluoro-1,3-dioxoisoindolin-5-yl)azitidin-3-yl)piperidine-4-yl)ethynyl)-5-oxo-5H-pyrrolino [3,4-b]pyridin-6(7H)-yl)-2,2,4,4-tetramethylcyclobutoxy)benzonitrile]",50 to 79%
2,"N#Cc1ccc(O[C@H]2CC[C@H](N3Cc4nc(C#CC5CCN(C6CCN(c7cc8c(cc7F)C(=O)N(C7CCC(=O)NC7=O)C8=O)CC6)CC5)ccc4C3=O)CC2)cc1Cl (some centres unmarked) [Compound 324, 2-Chloro-4-((1r,4r)-4-(2-((1′-(2,6-dioxopiperidin-3-yl)-6-fluoro-1,3-dioxoisoindolin-5-yl)-1,4′-dipiperidine-4-yl)ethynyl)-5-oxo-5H-pyrrolo[3,4-b]pyridin-6(7H)-cyclohexaneoxy)benzonitrile]",25 to 49%
3,"N#Cc1ccc(O[C@H]2CC[C@H](NC(=O)c3cnc(N4CCC(N5CC6(CCN(c7ccc8c(c7)C(=O)N(C7CCC(=O)NC7=O)C8=O)CC6)C5)CC4)cn3)CC2)cc1Cl (some centres unmarked) [Compound 229, N-((1r,4r)-4-(3-chloro-4-cyanophenoxy)cyclohexyl)-5-(4-(7-(2-(2,6-dioxopiperidin-3-yl)-1,3-dioxoisoindolin-5-yl)-2,7-diazaspiro[3.5]nonan-2-yl)piperidin-1-yl)pyrazine-2-carboxamide]",> 80%
4,"N#Cc1ccc(O[C@H]2CC[C@H](NC(=O)c3cnc(N4CCC(N5CC6CN(c7ccc8c(c7)C(=O)N(C7CCC(=O)NC7=O)C8=O)CC6C5)CC4)cn3)CC2)cc1Cl (some centres unmarked) [Compound 63, N-((1r,4r)-4-(3-chloro-4-cyanophenoxy)cyclohexyl)-5-(4-(5-(2-(2,6-dioxopiperidin-3-yl)-1,3-dioxoisoindolin-5-yl)hexahydropyrrolo[3,4-c]pyrrol-2(1H)-yl)piperidin-1-yl)pyrazine-2-carboxamide]",50 to 79%
5,N#Cc1ccc(O[C@H]2CC[C@H](NC(=O)c3cnc(N4CCC5(CCN(CC6CCN(c7cc8c(cc7F)C(=O)N(C7CCC(=O)NC7=O)C8=O)CC6)C5)C4)cn3)CC2)cc1Cl (some centres unmarked) [Compound 163],> 80%
6,"N#Cc1ccc(O[C@H]2CC[C@H](NC(=O)c3cnc(N4CCC(N5CC6CN(c7cc8c(cc7F)C(=O)N(C7CCC(=O)NC7=O)C8=O)CC6C5)CC4)cn3)CC2)cc1Cl (some centres unmarked) [Compound 64, N-((1r,4r)-4-(3-chloro-4-cyanophenoxy)cyclohexyl)-5-(4-(5-(2-(2,6-dioxopiperidin-3-yl)-6-fluoro-1,3-dioxoisoindolin-5-yl)hexahydropyrrolo[3,4-c]pyrrol-2(1H)-yl)piperidin-1-yl)pyrazine-2-carboxamide]",50 to 79%
7,N#Cc1ccc(O[C@H]2CC[C@H](NC(=O)c3ccc(N4CCN(C(=O)O[C@H]5C[C@@H]6CN(c7cc8c(cc7F)C(=O)N(C7CCC(=O)NC7=O)C8=O)C[C@@H]6C5)CC4)nn3)CC2)cc1Cl (some centres unmarked) [Compound 290],50 to 79%
8,"CC1(C)[C@H](NC(=O)c2ccc(N3CC4CN(CC5CN(c6cc7c(cc6F)C(=O)N(C6CCC(=O)NC6=O)C7=O)C5)CC4C3)nn2)C(C)(C)[C@H]1Oc1ccc(C#N)c(Cl)c1 (some centres unmarked) [Compound 161, N-((1r,3r)-3-(3-chloro-4-cyanophenoxy)-2,2,4,4-tetramethylcyclobutyl)-6-(5-((1-(2-(2,6-dioxopiperidin-3-yl)-6-fluoro-1,3-dioxoisoindolin-5-yl)azelaic acid-3-yl)methyl)hexahydropyrrolo[3,4-c]pyrrol-2(1H)-pyrazole)formamide]",50 to 79%
9,"N#Cc1ccc(O[C@H]2CC[C@H](NC(=O)c3ccc(N4CC(N5CC6CN(c7cc8c(cc7F)C(=O)N(C7CCC(=O)NC7=O)C8=O)CC6C5)C4)nn3)CC2)cc1Cl (some centres unmarked) [Compound 223, N-((1r,4r)-4-(3-chloro-4-cyanophenoxy)cyclohexyl)-6-(3-(5-(2-(2,6-dioxopiperidin-3-yl)-6-fluoro-1,3-dioxoisoindolin-5-yl)hexahydropyrrolo[3,4-c]pyrrol-2(1H)-yl)azitidin-1-yl)pyridazine-3-carboxamide]",> 80%
10,N#Cc1ccc(O[C@H]2CC[C@H](NC(=O)c3cnc(N4CC(CN5CC6CN(c7cc8c(cc7F)C(=O)N(C7CCC(=O)NC7=O)C8=O)CC6C5)C4)cn3)CC2)cc1Cl (some centres unmarked) [Compound 138],25 to 49%
11,"N#Cc1ccc(O[C@H]2CC[C@H](NC(=O)c3cnc(N4CCC(CN5CC6CN(c7cc8c(cc7F)C(=O)N(C7CCC(=O)NC7=O)C8=O)CC6C5)CC4)nc3)CC2)cc1Cl (some centres unmarked) [Compound 257, N-((1r,4r)-4-(3-chloro-4-cyanophenoxy)cyclohexyl)-2-(4-((5-(2-(2,6-dioxopiperidin-3-yl)-6-fluoro-1,3-dioxoisoindolin-5-yl)Hexahydropyrrolo[3,4-c]pyrrol-2(1H)-yl)methyl)piperidin-1-yl)pyrimidine-5-carboxamide]",25 to 49%
12,"N#Cc1ccc(O[C@H]2CC[C@H](NC(=O)c3ccc(N4CCC(NC5CCN(c6ccc7c(c6)C(=O)N(C6CCC(=O)NC6=O)C7=O)CC5)CC4)cc3)CC2)cc1Cl (some centres unmarked) [Compound 302, N-((1r,4r)-4-(3-chloro-4-cyanophenoxy)cyclohexyl)-4-(4-((1-(2-(2,6-dioxopiperidin-3-yl)-1,3-dioxoisoindolin-5-yl)piperidine-4-yl)amino)piperidin-1-yl)benzamide]",< 25%
13,CN(C1CCN(c2ccc3c(c2)C(=O)N(C2CCC(=O)NC2=O)C3=O)CC1)C1CC(C#Cc2ccc3c(n2)CN([C@H]2C(C)(C)[C@H](Oc4ccc(C#N)c(Cl)c4)C2(C)C)C3=O)C1 (some centres unmarked) [Compound 331],25 to 49%
14,"N#Cc1ccc(O[C@H]2CC[C@H](NC(=O)c3ccc(N4CCN([C@@H]5C[C@@H]6CN(c7ccc8c(c7)C(=O)N(C7CCC(=O)NC7=O)C8=O)C[C@@H]6C5)CC4)nn3)CC2)cc1Cl (stereo partly drawn) [Compound 298, N-((1r,4r)-4-(3-chloro-4-cyanophenoxy)cyclohexyl)-6-(4-((3aR,5R,6aS)-2-(2-(2,6-dioxopiperidin-3-yl)-1,3-dioxoisoindolin-5-yl)octahydrocyclopenta[c]pyrrol-5-yl)piperazin-1-yl)pyridazine-3-formamide]",< 25%
15,N#Cc1ccc(O[C@H]2CC[C@H](NC(=O)c3ccc(N4CC5CN(C6CCN(c7cc8c(cc7F)C(=O)N(C7CCC(=O)NC7=O)C8=O)CC6)CC5C4)nn3)CC2)cc1Cl (some centres unmarked) [Compound 67],< 25%
16,"N#Cc1ccc(O[C@H]2CC[C@H](NC(=O)c3cnc(N4C[C@@H]5[C@@H](CN6CCN(c7ccc8c(c7)C(=O)N(C7CCC(=O)NC7=O)C8=O)CC6)[C@@H]5C4)cn3)CC2)cc1Cl (stereo partly drawn) [Compound 177, N-((1r,4R)-4-(3-chloro-4-cyanophenoxy)cyclohexyl)-5-((1R,5S,6S)-6-((4-(2-(2,6-dioxopiperidin-3-yl)-1,3-dioxoisoindolin-5-yl)piperazin-1-yl)methyl)-3-azabicyclo[3.1.0]hexan-3-yl)pyrazine-2-carboxamide]",50 to 79%
17,N#Cc1ccc(O[C@H]2CC[C@H](NC(=O)c3ccc(N4CC5CN(C[C@@H]6[C@H]7CN(c8ccc9c(c8)C(=O)N(C8CCC(=O)NC8=O)C9=O)C[C@@H]67)CC5C4)nn3)CC2)cc1Cl (some centres unmarked) [Compound 100],50 to 79%
18,"CC1(C)[C@H](NC(=O)c2cnc(N3C[C@@H]4[C@@H](CN5CCN(c6cc7c(cc6F)C(=O)N(C6CCC(=O)NC6=O)C7=O)CC5)[C@@H]4C3)cn2)C(C)(C)[C@H]1Oc1ccc(C#N)c(Cl)c1 (stereo partly drawn) [Compound 182, N-((1r,3R)-3-(3-chloro-4-cyanophenoxy)-2,2,4,4-tetramethylcyclobutyl)-5-((1R,5S,6S)-6-((4-(2-(2,6-dioxopiperidin-3-yl)-6-fluoro-1,3-dioxoisoindolin-5-yl)piperazin-1-yl)methyl)-3-azabicyclo[3.1.0]hexan-3-yl)pyrazine-2-carboxamide]",50 to 79%
19,N#Cc1ccc(O[C@H]2CC[C@H](N3Cc4nc(N5CCC(CN6CCC(Nc7ccc8c(c7)C(=O)N(C7CCC(=O)NC7=O)C8=O)CC6)CC5)ccc4C3=O)CC2)cc1Cl (some centres unmarked) [Compound 173],< 25%
